#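 At the GI50, growth is halved. TGI is the concentration that stops growth completely.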
# What was measured:
# Assay in all cases: NCI anticancer screen, dose series, 384-well format
# [1] = tested on: A498 renal
# [2] = tested on: A549 NSCLC
# [3] = tested on: ACHN renal
# [4] = tested on: BT-549 breast
# [5] = tested on: CAKI-1 renal
# [6] = tested on: COLO 205 colon
# [7] = tested on: DU-145 prostate
# [8] = tested on: EKVX NSCLC
# [9] = tested on: HCC-2998 colon
# [10] = tested on: HCT-116 colon
# [11] = tested on: HCT-15 colon
# [12] = tested on: HL-60(TB) leukemia
# [13] = tested on: HOP-62 NSCLC
# [14] = tested on: HOP-92 NSCLC
# [15] = tested on: HS 578T breast
# [16] = tested on: HT29 colon
# [17] = tested on: IGROV1 ovarian
# [18] = tested on: KM12 colon
# [19] = tested on: LOX IMVI melanoma
# [20] = tested on: M14 melanoma
# [21] = tested on: MALME-3M melanoma
# [22] = tested on: MCF7 breast
# [23] = tested on: MDA-MB-231 breast
# [24] = tested on: MDA-MB-435 melanoma
# [25] = tested on: MDA-MB-468 breast
# [26] = tested on: MOLT-4 leukemia
# [27] = tested on: NCI-H226 lung
# [28] = tested on: NCI-H23 lung
# [29] = tested on: NCI-H322M lung
# [30] = tested on: NCI-H460 NSCLC
# [31] = tested on: NCI-H522 lung
# [32] = tested on: NCI/ADR-RES ovarian
# [33] = tested on: OVCAR-3 ovarian
# [34] = tested on: OVCAR-4 ovarian
# [35] = tested on: OVCAR-5 ovarian
# [36] = tested on: OVCAR-8 ovarian
# [37] = tested on: PC-3 prostate
# [38] = tested on: RPMI-8226 leukemia
# [39] = tested on: RXF 393 renal
# [40] = tested on: SF-268 CNS
# [41] = tested on: SF-295 CNS
# [42] = tested on: SF-539 CNS
# [43] = tested on: SK-MEL-28 melanoma
# [44] = tested on: SK-MEL-5 melanoma
# [45] = tested on: SK-OV-3 ovarian
# [46] = tested on: SN12C renal
# [47] = tested on: SNB-19 CNS
# [48] = tested on: SNB-75 CNS
# [49] = tested on: SR leukemia
# [50] = tested on: T-47D breast
# [51] = tested on: TK-10 renal
# [52] = tested on: U251 glioblastoma
# [53] = tested on: UACC-257 melanoma
# [54] = tested on: UACC-62 melanoma
structure (smiles),measurement,setting,value
CCn1c(C(=O)N(C2CC2)C2CC2)cc2c3c(ncn3C)c(Nc3cc(C)n(C)n3)nc21,GI50,[1],> 100 µM
same,TGI,[1],> 100 µM
same,GI50,[2],> 100 µM
same,TGI,[2],> 100 µM
same,GI50,[3],> 100 µM
same,TGI,[3],> 100 µM
same,GI50,[4],> 100 µM
same,TGI,[4],> 100 µM
same,GI50,[5],> 100 µM
same,TGI,[5],> 100 µM
same,GI50,[6],> 100 µM
same,TGI,[6],> 100 µM
same,GI50,[7],> 100 µM
same,TGI,[7],> 100 µM
same,GI50,[8],> 100 µM
same,TGI,[8],> 100 µM
same,GI50,[9],> 100 µM
same,TGI,[9],> 100 µM
same,GI50,[10],> 100 µM
same,TGI,[10],> 100 µM
same,GI50,[11],> 100 µM
same,TGI,[11],> 100 µM
same,GI50,[12],> 100 µM
same,TGI,[12],> 100 µM
same,GI50,[13],> 100 µM
same,TGI,[13],> 100 µM
same,GI50,[14],> 100 µM
same,TGI,[14],> 100 µM
same,GI50,[15],> 100 µM
same,TGI,[15],> 100 µM
same,GI50,[16],> 100 µM
same,TGI,[16],> 100 µM
same,GI50,[17],44 µM
same,TGI,[17],> 100 µM
same,GI50,[18],0.675 µM
same,TGI,[18],> 100 µM
same,GI50,[19],49.7 µM
same,TGI,[19],> 100 µM
same,GI50,[20],> 100 µM
same,TGI,[20],> 100 µM
same,GI50,[21],> 100 µM
same,TGI,[21],> 100 µM
same,GI50,[22],> 100 µM
same,TGI,[22],> 100 µM
same,GI50,[23],> 100 µM
same,TGI,[23],> 100 µM
same,GI50,[24],> 100 µM
same,TGI,[24],> 100 µM
same,GI50,[25],> 100 µM
same,TGI,[25],> 100 µM
same,GI50,[26],87.2 µM
same,TGI,[26],> 100 µM
same,GI50,[27],> 100 µM
same,TGI,[27],> 100 µM
same,GI50,[28],> 100 µM
same,TGI,[28],> 100 µM
same,GI50,[29],> 100 µM
same,TGI,[29],> 100 µM
same,GI50,[30],> 100 µM
same,TGI,[30],> 100 µM
same,GI50,[31],> 100 µM
same,TGI,[31],> 100 µM
same,GI50,[32],> 100 µM
same,TGI,[32],> 100 µM
same,GI50,[33],> 100 µM
same,TGI,[33],> 100 µM
same,GI50,[34],33.4 µM
same,TGI,[34],> 100 µM
same,GI50,[35],> 100 µM
same,TGI,[35],> 100 µM
same,GI50,[36],> 100 µM
same,TGI,[36],> 100 µM
same,GI50,[37],> 100 µM
same,TGI,[37],> 100 µM
same,GI50,[38],> 100 µM
same,TGI,[38],> 100 µM
same,GI50,[39],> 100 µM
same,TGI,[39],> 100 µM
same,GI50,[40],> 100 µM
same,TGI,[40],> 100 µM
same,GI50,[41],> 100 µM
same,TGI,[41],> 100 µM
same,GI50,[42],> 100 µM
same,TGI,[42],> 100 µM
same,GI50,[43],> 100 µM
same,TGI,[43],> 100 µM
same,GI50,[44],> 100 µM
same,TGI,[44],> 100 µM
same,GI50,[45],34.8 µM
same,TGI,[45],> 100 µM
same,GI50,[46],3.43 µM
same,TGI,[46],> 100 µM
same,GI50,[47],> 100 µM
same,TGI,[47],> 100 µM
same,GI50,[48],26.2 µM
same,TGI,[48],> 100 µM
same,GI50,[49],8.59 µM
same,TGI,[49],50.5 µM
same,GI50,[50],> 100 µM
same,TGI,[50],> 100 µM
same,GI50,[51],81.8 µM
same,TGI,[51],> 100 µM
same,GI50,[52],> 100 µM
same,TGI,[52],> 100 µM
same,GI50,[53],> 100 µM
same,TGI,[53],> 100 µM
same,GI50,[54],> 100 µM
same,TGI,[54],> 100 µM

# — PubChem BioAssay (NCI)
